{
  "source": "patent US20070003613A1",
  "about": "“Preparations to support maintenance of acid-alkaline balance in the human body and methods directed to using same” (priority 2005, published 2007)",
  "origin": "cited, not measured here",
  "conditions": "second dissociation",
  "data": [
    {"smiles": "NCC(=O)O", "note": "[glycine]", "values": [
      {"measurement": "pH at which the second H+ ion is liberated", "value": 9.6}
    ]}
  ]
}
